Test results: patent US6806265B2, “Non-nucleoside reverse transcriptase inhibitors” (priority 2002, dated 2004)
Like-named read-outs stand apart in the source and are kept apart here.

Legend:
[1] = system: HIV-1 wild type; experiment: microbe, parasite or virus in culture; type: cell-based
[2] = target: T1, HIV-1 wild type reverse transcriptase (Human immunodeficiency virus type 1 group M subtype B, UniProt P03366); experiment: biochemical; settings: wild type RT; read-out: IC50 WT RT
T1 construct: HIV-1 wild type reverse transcriptase
Description: (§1) Utilizing the Reverse Transcriptase (RT) Assay described below, compounds were tested for their ability to inhibit the RNA-dependent DNA polymerase activity of HIV-1 RT. Certain specific compounds described in the Examples and in Tables 1-4, were so tested. The results of this testing appear in Table 5 as ranges of IC50 (nM) and EC50 (nM).
(§2) Reverse Transcriptase (RT) Assays

[3] = target: T2, HIV-1 RT double mutant K103N/Y181C (Human immunodeficiency virus type 1 group M subtype B, UniProt P03366, K702N/Y780C); experiment: biochemical
T2 construct: HIV-1 wild type reverse transcriptase as well as the clinically significant double mutant K103N/Y181C
Description: as §1, §2

[4] = system: HIV-1 double mutant K103N/Y181C; experiment: microbe, parasite or virus in culture; type: cell-based
[5] = wild type, read-out: EC50 WT RT
[6] = RT double mutant K103N/Y181C, read-out: IC50 K103N/Y181C
[7] = double mutant K103N/Y181C, read-out: EC50 K103N/Y181C
[8] = Human immunodeficiency virus 1, read-out: EC50 WT RT (nM)
[9] = Human immunodeficiency virus 1, read-out: EC50 K103N/Y181C (nM)
[10] = Human immunodeficiency virus 1, wild type, read-out: EC50 WT RT

CCN1c2ncc(CCOc3ccc(-c4ccc(CC(=O)O)cc4)cc3C)cc2C(=O)N(C)c2cccnc21 [Entry 1008]
EC50 [1, 5]: < 10 nM | IC50 [2]: < 50 nM | IC50 [3, 6]: < 50 nM | EC50 [4, 7]: < 10 nM

CCN1c2ncccc2NC(=O)c2cc(CCOc3ccc(-c4ccc(CC(=O)O)cc4)cc3C)cnc21 [Entry 1058]
EC50 [1, 5]: < 10 nM | IC50 [2]: < 50 nM | IC50 [3, 6]: 50 to 100 nM | EC50 [4, 7]: 10 to 50 nM

CCN1c2ncc(CCOc3ccc(C(=O)NS(=O)(=O)c4ccccc4)cc3C)cc2C(=O)N(C)c2cccnc21 [Entry 3009]
EC50 [1, 8]: 10 to 50 nM | IC50 [2]: < 50 nM | IC50 [3]: > 100 nM | EC50 [4, 9]: > 50 nM

CCN1c2ncc(CCOc3ccc(Nc4cccc(CC(=O)O)c4)cc3C)cc2C(=O)N(C)c2cccnc21 [Entry 3024]
EC50 [1, 8]: < 10 nM | IC50 [2]: < 50 nM | IC50 [3]: < 50 nM | EC50 [4, 9]: < 10 nM

CCN1c2ncc(CCOc3ccc(C(=O)Nc4ccc(CC(=O)O)cc4)cc3C)cc2C(=O)Nc2c(C)ccnc21 [Entry 3018]
EC50 [1, 8]: 10 to 50 nM | IC50 [2]: < 50 nM | IC50 [3]: < 50 nM | EC50 [4, 9]: > 50 nM

CCN1c2ncc(CCOc3ccc(-c4c[nH]cn4)cc3C)cc2C(=O)N(C)c2cccnc21 [Entry 1094, 11-Ethyl-5,11-dihydro-8-{2-[4-(1H-imidazol-4-yl)-2-methylphenoxy]ethyl}-5-methyl-6H-dipyrido[3,2-b:2′,3′-e][1,4]diazepin-6-one]
EC50 [1, 10]: < 10 nM | IC50 [2]: < 50 nM | IC50 [3]: < 50 nM | EC50 [4, 9]: < 10 nM

CCN1c2ncc(CCOc3ccc(C(=O)Nc4ccc(CC(=O)O)cc4)cc3C)cc2C(=O)N(C)c2cccnc21 [Entry 3005]
EC50 [1, 8]: < 10 nM | IC50 [2]: < 50 nM | IC50 [3]: < 50 nM | EC50 [4, 9]: 10 to 50 nM

CCN1c2ncc(CCOc3ccc(C(=O)c4ccc(C(=O)O)cc4)cc3C)cc2C(=O)N(C)c2cccnc21 [Entry 3027]
EC50 [1, 8]: < 10 nM | IC50 [2]: < 50 nM | IC50 [3]: 50 to 100 nM | EC50 [4, 9]: 10 to 50 nM

CCN1c2ncc(CCOc3ccc(-c4ccccc4)cc3)cc2C(=O)N(C)c2cccnc21 [Entry 1101]
EC50 [1, 5]: < 10 nM | IC50 [2]: < 50 nM | IC50 [3, 6]: 50 to 100 nM | EC50 [4, 7]: > 50 nM

CCN1c2ncc(CCOc3ccc(NC(=O)CCC(=O)O)cc3C)cc2C(=O)N(C)c2cccnc21 [Entry 4006]
EC50 [1, 10]: 10 to 50 nM | IC50 [2]: < 50 nM | IC50 [3]: 50 to 100 nM | EC50 [4, 9]: > 50 nM

CCN1c2ncc(CCOc3ccc(C(=O)NN)cc3C)cc2C(=O)N(C)c2cccnc21 [Entry 4011, 4-[2-(11-Ethyl-6,11-dihydro-5-methyl-6-oxo-5H-dipyrido[3,2-b:2′,3′-e][1,4]diazepin-8-yl)ethoxy]-3-methylbenzoic acid hydrazide]
EC50 [1, 10]: < 10 nM | IC50 [2]: < 50 nM | IC50 [3]: < 50 nM | EC50 [4, 9]: < 10 nM

CCN1c2ncc(CCOc3ccc(-c4cc[n+]([O-])cc4)cc3)cc2C(=O)N(C)c2cccnc21 [Entry 1091, 11-Ethyl-5,11-dihydro-5-methyl-8-{2-[4-(1-oxido-4-pyridinyl)phenoxy]ethyl}-6H-dipyrido[3,2-b:2′,3′-e][1,4]diazepin-6-one]
EC50 [1, 10]: < 10 nM | IC50 [2]: < 50 nM | IC50 [3]: < 50 nM | EC50 [4, 9]: < 10 nM

CCN1c2ncc(CCOc3ccc(-c4ccc(CC(=O)O)cc4)cc3CO)cc2C(=O)N(C)c2cccnc21 [Entry 1104]
EC50 [1, 5]: < 10 nM | IC50 [2]: < 50 nM | IC50 [3, 6]: < 50 nM | EC50 [4, 7]: 10 to 50 nM

CCN1c2ncc(CCOc3ccc(C(=O)NC(C)(C)CC(=O)O)cc3C)cc2C(=O)N(C)c2cccnc21 [Entry 4017]
EC50 [1, 10]: < 10 nM | IC50 [2]: < 50 nM | IC50 [3]: > 100 nM | EC50 [4, 9]: > 50 nM

CCN1c2ncc(CCOc3ccc(-c4ccc(CC(=O)O)cc4)cc3)cc2C(=O)N(C)c2cccnc21 [Entry 1007]
EC50 [1, 5]: 10 to 50 nM | IC50 [2]: < 50 nM | IC50 [3, 6]: 50 to 100 nM | EC50 [4, 7]: > 50 nM

CCN1c2ncc(CCOc3ccc(S(=O)(=O)NCC(=O)O)cc3C)cc2C(=O)N(C)c2cccnc21 [Entry 4020]
EC50 [1, 10]: > 50 nM | IC50 [2]: < 50 nM | IC50 [3]: < 50 nM | EC50 [4, 9]: > 50 nM

CCN1c2ncc(CCOc3ccc(C(=O)Nc4ccc(C(=O)O)cc4)cc3C)cc2C(=O)Nc2c(C)ccnc21 [Entry 3017]
EC50 [1, 5]: 10 to 50 nM | IC50 [2]: < 50 nM | IC50 [3, 6]: < 50 nM | EC50 [4, 7]: > 50 nM

CCN1c2ncc(CCOc3ccc(-c4cccc(C(=O)O)c4)cc3C)cc2C(=O)N(C)c2cccnc21 [Entry 1013, 4′-[2-(11-Ethyl-6,11-dihydro-5-methyl-6-oxo-5H-dipyrido[3,2-b:2′,3′-e][1,4]diazepin-8-yl)ethoxy]-3′-methyl-[1,1′-biphenyl]-3-carboxylic acid]
EC50 [1, 8]: < 10 nM | IC50 [2]: < 50 nM | IC50 [3]: < 50 nM | EC50 [4, 9]: 10 to 50 nM

CCN1c2ncc(CCOc3ccc(C(=O)Nc4cc[n+]([O-])cc4)cc3C)cc2C(=O)N(C)c2cccnc21 [Entry 3004, 4-[2-(11-Ethyl-6,11-dihydro-5-methyl-6-oxo-5H-dipyrido[3,2-b:2′,3′-e][1,4]diazepin-8-yl)ethoxy]-3-methyl-N-(1-oxido-4-pyridinyl)benzamide]
EC50 [1, 10]: < 10 nM | IC50 [2]: < 50 nM | IC50 [3]: < 50 nM | EC50 [4, 9]: < 10 nM

CCN1c2ncc(CCOc3ccc(S(=O)(=O)Nc4ccc(C(=O)O)cc4)cc3C)cc2C(=O)N(C)c2cccnc21 [Entry 3030]
EC50 [1, 5]: > 50 nM | IC50 [2]: < 50 nM | IC50 [3, 6]: < 50 nM | EC50 [4, 7]: > 50 nM

CCN1c2ncc(CCOc3ccc(C(=O)Nc4cccn(CC(=O)O)c4=O)cc3C)cc2C(=O)N(C)c2cccnc21 [Entry 3012]
EC50 [1, 10]: > 50 nM | IC50 [2]: < 50 nM | IC50 [3]: 50 to 100 nM | EC50 [4, 9]: > 50 nM

CCN1c2ncc(CCOc3ccc(C(=O)Nc4cccc(CC(=O)O)c4)cc3C)cc2C(=O)N(C)c2cccnc21 [Entry 3010]
EC50 [1, 8]: 10 to 50 nM | IC50 [2]: < 50 nM | IC50 [3]: < 50 nM | EC50 [4, 9]: 10 to 50 nM

CCN1c2ncc(CCOc3ccc(C(=O)NCC4(C(=O)O)CCCC4)cc3C)cc2C(=O)N(C)c2cccnc21 [Entry 4018]
EC50 [1, 10]: < 10 nM | IC50 [2]: < 50 nM | IC50 [3]: > 100 nM | EC50 [4, 9]: 10 to 50 nM

CCN1c2ncc(CCOc3ccc(C(=O)Nc4cccnc4O)cc3C)cc2C(=O)N(C)c2cccnc21 [Entry 3021]
EC50 [1, 10]: < 10 nM | IC50 [2]: < 50 nM | IC50 [3]: < 50 nM | EC50 [4, 9]: < 10 nM

Cc1cc(-c2ccc(CC(=O)O)cc2)ccc1OCCc1cnc2c(c1)C(=O)N(C)c1cccnc1N2 [Entry 1059]
EC50 [1, 5]: < 10 nM | IC50 [2]: < 50 nM | IC50 [3, 6]: > 100 nM | EC50 [4, 7]: > 50 nM

CCN1c2ncc(CCOc3ccc(-c4csc(N)n4)cc3C)cc2C(=O)N(C)c2cccnc21 [Entry 1093, 8-{2-[4-(2-Amino-4-thiazolyl)-2-methylphenoxy]ethyl}-11-ethyl-5,11-dihydro-5-methyl-6H-dipyrido[3,2-b:2′,3′-e][1,4]diazepin-6-one]
EC50 [1, 10]: < 10 nM | IC50 [2]: < 50 nM | IC50 [3]: < 50 nM | EC50 [4, 9]: < 10 nM

CCN1c2ncc(CCOc3ccc(NC(=O)c4ccc(C(=O)O)cc4)cc3C)cc2C(=O)N(C)c2cccnc21 [Entry 3032]
EC50 [1, 8]: 10 to 50 nM | IC50 [2]: < 50 nM | IC50 [3]: < 50 nM | EC50 [4, 9]: > 50 nM

CCN1c2ncc(CCOc3ccc(-c4cccc(CC(=O)O)c4)cc3)cc2C(=O)N(C)c2cccnc21 [Entry 1014]
EC50 [1, 5]: < 10 nM | IC50 [2]: < 50 nM | IC50 [3, 6]: > 100 nM | EC50 [4, 7]: 10 to 50 nM

CCN1c2ncc(CCOc3ccc(C(=O)NCC(CC)(CC)C(=O)O)cc3C)cc2C(=O)N(C)c2cccnc21 [Entry 4014]
EC50 [1, 10]: < 10 nM | IC50 [2]: < 50 nM | IC50 [3]: < 50 nM | EC50 [4, 9]: 10 to 50 nM

CCN1c2ncc(CCOc3ccc(-c4cccc(C(=O)O)c4)cc3)cc2C(=O)N(C)c2cccnc21 [Entry 1012]
EC50 [1, 5]: < 10 nM | IC50 [2]: < 50 nM | IC50 [3, 6]: > 100 nM | EC50 [4, 7]: 10 to 50 nM

CCN1c2ncc(CCOc3ccc(-c4ccncc4)cc3)cc2C(=O)N(C)c2cccnc21 [Entry 1090, 11-Ethyl-5,11-dihydro-5-methyl-8-{2-[4-(4-pyridinyl)phenoxy]ethyl}-6H-dipyrido[3,2-b:2′,3′-e][1,4]diazepin-6-one]
EC50 [1, 10]: < 10 nM | IC50 [2]: < 50 nM | IC50 [3]: 50 to 100 nM | EC50 [4, 9]: 10 to 50 nM

CCN1c2ncc(CCOc3ccc(C(=O)NS(C)(=O)=O)cc3C)cc2C(=O)N(C)c2cccnc21 [Entry 4013, 4-[2-(11-Ethyl-6,11-dihydro-5-methyl-6-oxo-5H-dipyrido[3,2-b:2′,3′-e][1,4]diazepin-8-yl)ethoxy]-3-methyl-N-(methylsulfonyl)benzamide]
EC50 [1, 10]: 10 to 50 nM | IC50 [2]: < 50 nM | IC50 [3]: > 100 nM | EC50 [4, 9]: > 50 nM

CCN1c2ncc(CCOc3ccc(NC(=O)Nc4ccc(C(=O)O)cc4)cc3C)cc2C(=O)N(C)c2cccnc21 [Entry 3031]
EC50 [1, 8]: 10 to 50 nM | IC50 [2]: < 50 nM | IC50 [3]: < 50 nM | EC50 [4, 9]: > 50 nM

CCN1c2ncc(CCOc3ccc(C(=O)Nc4ccc(C(=O)O)cc4)cc3C)cc2C(=O)N(C)c2cccnc21 [Entry 3001, 4-{{4-[2-(11-Ethyl-6,11-dihydro-5-methyl-6-oxo-5H-dipyrido[3,2-b:2′,3′-e][1,4]diazepin-8-yl)ethoxy]-3-methylbenzoyl}amino}benzoic acid]
EC50 [1, 8]: < 10 nM | IC50 [2]: < 50 nM | IC50 [3]: < 50 nM | EC50 [4, 9]: 10 to 50 nM
